In patent US9394261B2, “Aryl amine substituted pyrimidine and quinazoline and their use as anticancer drugs” (National Yang-Ming University, priority 2012, dated 2016):
“Also recorded” adds a separate entry of the source.

Assays:
EGFR [1] = target: T1, EGFR (Homo sapiens, UniProt P00533, DEL746-750); assay: western blot of EGFR phosphorylation in PC9 cells; type: cell-based
T1 construct: endogenous in cells; host or cells: PC9 cells
Protocol: 40 μg/per lane of cell lysates were analyzed by western blot. The antibodies of actin, EGFR, and p-EGFR were from Cell Signaling (Danvers, Mass.). In FIGS. 1A-1B, actin lines are used to show an internal standard for the loading control in this western blot.

[2] = test system: SK-Hep-1 cell lines (a hepatocellular carcinoma (HCC) cell); assay: MTT assay, growth inhibition of SK-Hep-1 cells; type: cell-based; details: for IC50: SK-Hep-1 cells, 48 hours
Protocol: MTT assay was used to measure growth inhibition. […] MTT (3-(4,5-dimethylthiazol-2-yl)-2,5-diphenyl tetrazolium bromide) assay was performed as follow.
(§1) The effect of individual test compounds on cell viability was assessed by using the MTT in 6 replicates. Sk-Hep-1 cells were seeded and incubated in 96-well, flat-bottomed plates for 24 hours, and were exposed to various concentrations of test compounds dissolved in DMSO (final concentration, 0.1%) for 48 hours. Controls received DMSO vehicle at a concentration equal to that in drug-treated cells. The medium was removed, replaced by 200 μL of 0.5 mg/mL MTT in 10% fetal bovine serum containing DMEM (Dulbecco's Modified Eagle Medium), and cells were incubated in the carbon dioxide incubator at 37° C. for 2 hours. Supernatants were removed from the wells and the reduced MTT dye was solubilized in 100 μL/well DMSO. Absorbance at 570 nm was determined on a plate reader.
The SK-Hep1 cells were then analyzed with western blot assay and MTT assay.

CIP2A [3] = assay: western blot of CIP2A expression in SK-Hep1 cells; type: cell-based; details: SK-Hep-1 cells, 5 μM, 30 hours (FIG. 4A)
Protocol: Accordingly, the pyrimidine and quinazoline derivatives above were screened by using western blot analysis for expression of CIP2A in SK-Hep1 cells. Before the western blot analysis, the SK-Hep-1 cells were maintained in DMEM supplemented with 10% FBS, 100 units/mL penicillin G, 100 μg/mL streptomycin sulfate and 25 μg/mL amphotericin B in a 37° C. humidified incubator in an atmosphere of 5% CO2 in air. In this western blot analysis, SK-Hep1 cells were respectively treated with compounds 1-24 at a concentration of 20 μM for 24 hours. In FIG. 2, the mono-substituted pyrimidine derivatives (compounds 1-5) have no appreciable change in CIP2A expression.
Cell viability, measured by MTT assay, and CIP2A expressions, analyzed by western blot, in response to compound 19 or erlotinib treatment in SK-Hep1 cell line were analyzed. SK-Hep-1 cells were treated with erlotinib and compound 19 at 2.5 and 5 μM for 24 h, respectively. The SK-Hep1 cells were then analyzed with western blot assay and MTT assay.
(§2) Next, compounds […], 19, and 22 were used to explore whether downregulation of CIP2A lead to suppression of p-Akt. FIG. 4A is the western blot analysis of the effect of the compounds 4, 19, and 22 on phosphorylation of Akt, PARP and Actin. In this western blot analysis, SK-Hep-1 cells were respectively treated with compounds 4, 19, and 22 at a concentration of 5 μM for 30 hours. […] That is, compound 19 and 22 can substantially increase apoptotic cell death to inhibit cancer growth.

p-Akt = assay: western blot of p-Akt in SK-Hep-1 cells; type: cell-based; details: for p-Akt level: SK-Hep-1 cells, 5 μM, 30 hours (FIG. 4A)
Protocol: as §2
In other words, in the present of okadaic acid, the activation of PP2A by compound 19-incuced CIP2A inactivation is blocked.

PARP = assay: western blot of PARP cleavage in SK-Hep-1 cells; type: cell-based; details: 5 μM, 30 hours (FIG. 4A)
Protocol: as §2

SK-Hep-1 cells = assay: apoptotic cell death by flow cytometry (sub-G1) and cell death detection ELISA; type: cell-based; details: 2.5 and 5 μM, 24 h (FIG. 4B-4C)
Protocol: FIG. 4B is flow cytometry analysis of cell death induced by compounds 4, 19, and 22 at 5 μM, after 24 h of treatment in SK-Hep-1 cells. The apoptotic cells were assessed by flow cytometry (sub-G1). After Sk-Hep-1 cells were treated with compounds 4, 19, and 22, Sk-Hep-1 cells were trypsinized, collected by centrifugation and resuspended in PBS. After centrifugation, the cells were washed in PBS and resuspended in […] (PI) staining solution. Specimens were incubated in the dark for 30 min at 37° C. and then analyzed with an EPICS Profile II flow cytometer (Coulter Corp., Hialeah, Fla.). All experiments were performed in triplicate
FIG. 4C is ELISA analysis of cell death to analyze effects of compounds 4, 19, and 22 on DNA fragmentation in SK-Hep-1 cells. The effect of compounds 4, 19 and 22 on cell viability was assessed by a cell death detection ELISA kit (Roche Applied Science, Mannheim, Germany). SK-Hep-1 cells were treated with compounds 4 and 19 at 22 at 2.5 and 5 μM for 24 h. The cells were collected and assayed according to the standard protocol provided by the manufacturer.

PLC5 xenograft tumor = PLC5 xenograft tumor growth in nude mice; details: erlotinib 50 mg/kg/day; for effect on PLC5 tumor growth, in words: p.o. daily for 3 weeks, compounds 20 mg/kg/day (FIG. 6A-6B)
Protocol: (§4) The mice were housed in groups and maintained under standard laboratory conditions on a 12-hour light-dark cycle. They were given access to sterilized food and water ad libitum. All experimental procedures using these mice were performed in accordance with protocols approved by the Institutional Laboratory Animal Care and Use Committee of National Taiwan University. Each mouse was inoculated s.c. in the dorsal flank with 1×10^6 HCC cells suspended in 0.1 ml of serum-free medium containing 50% Matrigel (BD Biosciences, Bedford, Mass.). […] Controls received vehicle.
(§5) Tumor growth data points are reported as mean tumor volume±SE.

PLC5 cell lines = assay: MTT assay, growth inhibition of PLC5 cells; type: cell-based
Protocol: as §1
(§3) Next, compounds 19, and 34-36 were screened against a panel of Hep3B cell lines for growth-inhibitory activities. […] Compounds 87-90, 95 and 96 were screened against a panel of PLC5 cell lines for growth-inhibitory activities.

Hep3B cell lines = assay: MTT assay, growth inhibition of Hep3B cells; type: cell-based; details: Homo sapiens
Protocol: as §1, §3

Huh-7 xenograft tumor = Huh-7 xenograft tumor growth in nude mice; details: erlotinib 50 mg/kg/day
Protocol: as §4, §5

EGFR [4] = target: EGFR (Homo sapiens, UniProt P00533); assay: western blot of EGFR phosphorylation in H358 cells; details: 1 and 5 μM, 24 hours (FIG. 1C)
EGFR (Homo sapiens, UniProt P00533), sequence (P00533 25-1210): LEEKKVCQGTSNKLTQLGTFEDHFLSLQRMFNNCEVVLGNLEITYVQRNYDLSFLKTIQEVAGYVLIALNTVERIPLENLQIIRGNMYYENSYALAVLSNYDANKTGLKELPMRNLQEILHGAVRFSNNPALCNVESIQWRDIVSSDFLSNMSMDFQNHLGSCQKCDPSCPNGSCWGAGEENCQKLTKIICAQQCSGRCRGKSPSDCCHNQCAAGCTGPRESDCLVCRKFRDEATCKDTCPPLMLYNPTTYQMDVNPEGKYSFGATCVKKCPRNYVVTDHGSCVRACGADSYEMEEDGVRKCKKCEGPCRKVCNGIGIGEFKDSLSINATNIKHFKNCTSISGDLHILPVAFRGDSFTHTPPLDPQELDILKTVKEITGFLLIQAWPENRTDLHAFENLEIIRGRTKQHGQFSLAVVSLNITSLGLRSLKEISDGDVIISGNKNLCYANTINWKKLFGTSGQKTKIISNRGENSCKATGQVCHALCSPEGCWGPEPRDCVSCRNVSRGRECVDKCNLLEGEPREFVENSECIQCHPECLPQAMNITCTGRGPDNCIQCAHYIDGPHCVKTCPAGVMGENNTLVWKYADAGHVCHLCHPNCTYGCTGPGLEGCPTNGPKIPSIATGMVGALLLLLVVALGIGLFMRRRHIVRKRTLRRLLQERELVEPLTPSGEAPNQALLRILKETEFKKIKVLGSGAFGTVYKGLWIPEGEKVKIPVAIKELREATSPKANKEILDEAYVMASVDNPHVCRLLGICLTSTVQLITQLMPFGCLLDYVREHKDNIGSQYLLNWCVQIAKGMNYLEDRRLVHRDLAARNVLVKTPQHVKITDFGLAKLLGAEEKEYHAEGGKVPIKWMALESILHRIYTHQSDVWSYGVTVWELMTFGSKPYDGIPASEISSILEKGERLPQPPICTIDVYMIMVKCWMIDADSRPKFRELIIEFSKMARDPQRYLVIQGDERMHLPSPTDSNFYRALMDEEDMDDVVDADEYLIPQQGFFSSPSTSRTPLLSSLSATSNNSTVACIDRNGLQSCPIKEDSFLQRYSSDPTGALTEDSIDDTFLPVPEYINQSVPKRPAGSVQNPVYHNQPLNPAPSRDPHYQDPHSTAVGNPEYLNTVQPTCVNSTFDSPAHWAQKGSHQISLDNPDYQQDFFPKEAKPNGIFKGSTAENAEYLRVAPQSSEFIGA

CIP2A [5] = assay: western blot of CIP2A expression in PLC/PRF/5 cells; type: cell-based; details: 10 μM, 48 hours (FIG. 8)
Protocol: PLC/PRF/5 cells were exposed to compounds 88, 95 and 96 at various doses (5 and 10 μM) for 48 hours. Total lysates were subjected to CIP2A protein analysis by western blot. Actin was used as a loading control.

[6] = p.o. daily, after 21 days of treatment, compounds 8 and 19 20 mg/kg/day

T1 sequence (P00533 with tags, fused parts or gaps DEL746-750): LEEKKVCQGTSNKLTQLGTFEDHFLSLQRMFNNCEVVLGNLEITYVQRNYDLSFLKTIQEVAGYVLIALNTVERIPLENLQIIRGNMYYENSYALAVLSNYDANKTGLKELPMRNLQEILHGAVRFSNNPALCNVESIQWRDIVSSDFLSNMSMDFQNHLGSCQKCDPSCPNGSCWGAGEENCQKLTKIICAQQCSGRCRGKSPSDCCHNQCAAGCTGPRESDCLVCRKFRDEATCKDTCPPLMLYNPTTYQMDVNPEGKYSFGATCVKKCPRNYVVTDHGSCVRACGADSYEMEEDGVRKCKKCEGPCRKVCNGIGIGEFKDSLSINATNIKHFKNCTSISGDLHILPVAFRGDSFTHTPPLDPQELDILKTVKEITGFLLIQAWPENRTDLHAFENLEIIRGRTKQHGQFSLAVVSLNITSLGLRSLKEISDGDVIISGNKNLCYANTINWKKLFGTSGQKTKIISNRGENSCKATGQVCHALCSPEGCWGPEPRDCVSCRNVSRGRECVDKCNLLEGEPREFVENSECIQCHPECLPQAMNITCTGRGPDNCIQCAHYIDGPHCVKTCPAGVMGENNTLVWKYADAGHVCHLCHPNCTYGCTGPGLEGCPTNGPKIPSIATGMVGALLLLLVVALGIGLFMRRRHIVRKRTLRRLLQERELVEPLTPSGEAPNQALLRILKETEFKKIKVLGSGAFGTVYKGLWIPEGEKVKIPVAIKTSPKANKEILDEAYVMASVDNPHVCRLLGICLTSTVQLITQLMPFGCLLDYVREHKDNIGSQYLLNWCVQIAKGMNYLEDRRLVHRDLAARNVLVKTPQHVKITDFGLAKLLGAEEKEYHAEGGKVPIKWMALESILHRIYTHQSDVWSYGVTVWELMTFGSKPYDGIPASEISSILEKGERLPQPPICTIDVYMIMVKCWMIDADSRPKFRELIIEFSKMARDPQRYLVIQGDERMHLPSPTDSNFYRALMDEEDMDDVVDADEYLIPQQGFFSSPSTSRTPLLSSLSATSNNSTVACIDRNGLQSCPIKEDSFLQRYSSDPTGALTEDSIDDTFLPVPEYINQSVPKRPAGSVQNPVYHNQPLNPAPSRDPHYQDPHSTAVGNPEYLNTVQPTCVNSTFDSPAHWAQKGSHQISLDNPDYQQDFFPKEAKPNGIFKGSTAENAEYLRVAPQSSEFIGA

C#Cc1cccc(Nc2nc(NCc3ccccc3)nc3cc(OC)c(OC)cc23)c1 [Compound 22, N^2-Benzyl-N^4-(3-ethynylphenyl)-6,7-dimethoxy quinazoline-2,4-diamine]
EGFR phosphorylation inhibition (western blot) (EGFR [1]; PC9 cells, 2 μM, 24 h (FIG. 3A)): no inhibitory effect on EGFR kinase
IC50 [2]: 2.8 µM
inhibiting CIP2A expression (CIP2A [3]): inhibiting CIP2A expression; also recorded: most potent inhibition of CIP2A expression
p-Akt level (p-Akt): reducing p-Akt level; also recorded: reduced Akt phosphorylation
PARP cleavage (PARP): inducing PARP cleavage
cell apoptosis (sub-G1 flow cytometry, DNA fragmentation ELISA) (SK-Hep-1 cells): induced cell apoptosis
effect on PLC5 tumor growth, in words (PLC5 xenograft tumor): significantly reducing the growth of tumor

C=C1[C@@H](O)[C@@H]2O[C@]3(CC[C@H](/C=C/[C@@H](C)[C@@H]4CC(C)=C[C@@]5(O[C@H](C[C@@](C)(O)C(=O)O)CC[C@H]5O)O4)O3)CC[C@H]2O[C@@H]1[C@@H](O)C[C@H](C)[C@H]1O[C@@]2(CCCCO2)CC[C@H]1C [okadaic acid, reference compound]
p-Akt level in compound 19 treated cells (p-Akt; SK-Hep-1 cells treated with compound 19 (FIG. 5B)): reversed p-Akt level

C#Cc1cccc(Nc2nc(Nc3ccc(Cl)c(Oc4ccc(C#N)c(C)c4)c3)nc3cc(OC)c(OC)cc23)c1 [Compound 89, 4-(2-chloro-5-((4-((3-ethynylphenyl)amino)-6,7-dimethoxyquinazolin-2-yl)amino)phenoxy)-2-methylbenzonitrile]
IC50 (PLC5 cell lines; PLC5, PLC5 cells): 20.2 µM

C#Cc1cccc(Nc2nc(Nc3cccc(NC(=O)c4cc(C(F)(F)F)cc(C(F)(F)F)c4)c3)nc3cc(OC)c(OC)cc23)c1 [Compound 35, N-(3-(4-(3-ethynylphenylamino)-6,7-dimethoxyquinazolin-2-ylamino)phenyl)-3,5-bis(trifluoromethyl)benzamide]
IC50 (Hep3B cell lines): 3.27 µM

C#Cc1cccc(Nc2nc(Cl)nc3cc(OC)c(OC)cc23)c1 [Compound 8, 2-Chloro-N-(3-ethynylphenyl)-6,7-dimethoxyquinazoline-4-amine]
EGFR kinase inhibition (p-EGFR western blot) (EGFR [1]; PC9 cells, 0.5, 1, 2, 4, and 8 μM, 24 hours (FIG. 1A-1B)): devoid of EGFR kinase inhibition
IC50 ([2]; Homo sapiens, SK-HEP1, 48 h): < 10 µM
effect on PLC5 tumor growth, in words (PLC5 xenograft tumor): significantly reduced the growth of tumor
tumor inhibition, PLC5 cell (PLC5 xenograft tumor; [6]): 45.7%
effect on Huh-7 tumor growth, in words (Huh-7 xenograft tumor; p.o. daily for 3 weeks, compounds 20 mg/kg/day (FIG. 7A-7B)): better inhibitory effect on Huh-7 tumors than erlotinib
tumor inhibition, Huh7 cell (Huh-7 xenograft tumor; [6]): 40.3%
EGFR phosphorylation inhibition (western blot) (EGFR [4]): devoid of EGFR kinase inhibition

Clc1nccc(Nc2ccc(Oc3ccccc3)cc2)n1 [Compound 4, 2-Chloro-N-(4-phenoxyphenyl)pyrimidin-4-amine]
IC50 ([2]; Homo sapiens, SK-HEP1, 48 h): > 40 µM
growth-inhibitory activity (MTT), in words ([2]; SK-Hep-1 (HCC) cells): no activity in either assay
inhibiting CIP2A expression (CIP2A [3]): no activity
p-Akt level (p-Akt): no activity
PARP cleavage (PARP): no activity

C#Cc1cccc(Nc2nc(Nc3ccc(Cl)c(Oc4ccc(C#N)c(Cl)c4)c3)nc3cc(OC)c(OC)cc23)c1 [Compound 88, 2-chloro-4-(2-chloro-5-((4-((3-ethynylphenyl)amino)-6,7-dimethoxyquinazolin-2-yl)amino)phenoxy)benzonitrile]
IC50 (PLC5 cell lines; PLC5, PLC5 cells): 12.7 µM
inhibition of CIP2A expression (CIP2A [5]): high degree of repression of CIP2A

C#Cc1cccc(Nc2nc(Nc3cccc(NCc4ccccc4)c3)nc3cc(OC)c(OC)cc23)c1 [Compound 34, N^2-(3-(benzylamino)phenyl)-N^4-(3-ethynylphenyl)-6,7-dimethoxyquinazoline-2,4-diamine]
IC50 (Hep3B cell lines): 3.35 µM

C#Cc1cccc(Nc2nc(Nc3ccc(Oc4ccc(Cl)c(Cl)c4)cc3)nc3cc(OC)c(OC)cc23)c1 [Compound 95, N^2-(4-(3,4-dichlorophenoxyl)phenyl)-N^4-(3-ethynylphenyl)-6,7-dimethoxyquinazoline-2,4-diamine]
IC50 (PLC5 cell lines; PLC5 cells): 0.95 µM
inhibition of CIP2A expression (CIP2A [5]): high degree of repression of CIP2A

C#Cc1cccc(Nc2nc(Nc3cccc(NC(=O)c4cccc(C(F)(F)F)c4)c3)nc3cc(OC)c(OC)cc23)c1 [Compound 36, N-(3-(4-(3-ethynylphenylamino)-6,7-dimethoxyquinazolin-2-ylamino)phenyl)-3-(trifluoromethyl)benzamide]
IC50 (Hep3B cell lines): 3.38 µM

C#Cc1cccc(Nc2nc(Nc3ccc(Oc4ccc(Cl)cc4)cc3)nc3cc(OC)c(OC)cc23)c1 [Compound 96, N^2-(4-(4-chlorophenoxyl)phenyl)-N^4-(3-ethynylphenyl)-6,7-dimethoxyquinazoline-2,4-diamine]
IC50 (PLC5 cell lines; PLC5, PLC5 cells): 0.61 µM
